Calls of active or inactive are those of the source. No cut-off for these calls is given here.

For one data set, the system named is HT-29. Kind of data set: Anticancer activity against human HT-29 cells assessed as inhibition of cell proliferation by MTT assay. The format is functional, cell-based.
In data set [1] the test system is HCT-116. As to the kind of experiment: Anticancer activity against human HCT-116 cells assessed as inhibition of cell proliferation by MTT assay. The format is functional, cell-based.
In the next data set the test system is RKO. As to the kind of experiment: Anticancer activity against human RKO cells assessed as inhibition of cell proliferation by MTT assay. The format is functional, cell-based.
A further data set has as its system LoVo. Kind of data set: Anticancer activity against human LoVo cells assessed as inhibition of cell proliferation by MTT assay. It is filed as functional, cell-based.
Another data set deals with SW480. Kind of data set: Anticancer activity against human SW480 cells assessed as inhibition of cell proliferation by MTT assay. The format is functional, cell-based.
The test system of the next data set is Huh-7. As to the kind of experiment: Anticancer activity against human Huh-7 cells assessed as inhibition of cell proliferation by MTT assay. It is filed as functional, cell-based.
The next data set relates to SK-HEP1. As to the kind of experiment: Anticancer activity against human SK-HEP1 cells assessed as inhibition of cell proliferation by MTT assay. The format is functional, cell-based.
The next data set has as its system A549. Kind of data set: Anticancer activity against human A549 cells assessed as inhibition of cell proliferation by MTT assay. The format is functional, cell-based.
A further data set deals with MGC-803. As to the kind of experiment: Anticancer activity against human MGC-803 cells assessed as inhibition of cell proliferation by MTT assay. The format is functional, cell-based.
Data set [2] in a line: Cytotoxicity against human WI-38 cells assessed as inhibition of cell proliferation by MTT assay. The format is toxicity, cell-based.
Data set [3] concerns RAW264.7. As to the kind of experiment: Anti-inflammatory activity against mouse RAW264.7 cells assessed as inhibition of LPS-induced NO production incubated for 24 hrs in presence of LPS by Griess reagent-based assay. It is filed as functional, cell-based. Particulars: RAW264.7, 24 h.
Data set [4] relates to RAW264.7. As to the kind of experiment: Anti-inflammatory activity against mouse RAW264.7 cells assessed as inhibition of LPS-induced NO production at 10 micromol/L incubated for 24 hrs in presence of LPS by Griess reagent-based assay. The format is functional. Particulars: RAW264.7, 24 h, dose 10 µmol/L.
The subject of data set [5] is RAW264.7. As to the kind of experiment: Anti-inflammatory activity against mouse RAW264.7 cells assessed as inhibition of LPS-induced NO production at 25 micromol/L incubated for 24 hrs in presence of LPS by Griess reagent-based assay. The format is functional. Particulars: RAW264.7, 24 h, dose 25 µmol/L.
The subject of data set [6] is RAW264.7. As to the kind of experiment: Anti-inflammatory activity against mouse RAW264.7 cells assessed as downregulation of LPS-induced TNF-alpha level at 25 micromol/L incubated for 24 hrs in presence of LPS by ELISA. It is filed as functional. The conditions noted are these: dose 25 µmol/L, at 25 µM.
The test system of data set [7] is HCT-116. Kind of data set: Anticancer activity against human HCT-116 cells assessed as inhibition of cell proliferation at 25 micromol/L incubated for 24 hrs by MTT assay. Particulars: HCT-116, 24 h, dose 25 µmol/L. The format is functional.
Data set [8] concerns HCT-116. As to the kind of experiment: Anticancer activity against human HCT-116 cells assessed as inhibition of cell proliferation at 30 micromol/L incubated for 24 hrs by MTT assay. Particulars: HCT-116, 24 h, dose 30 µmol/L. The format is functional.
Data set [9] concerns HCT-116. Kind of data set: Anticancer activity against human HCT-116 cells assessed as inhibition of cell proliferation at 5 to 50 micromol/L incubated for 24 hrs by MTT assay. It is filed as functional, cell-based. Particulars: dose 5-50 µmol/L, DDE = dose-dependent effect.
Data set [10] has as its system HCT-116. As to the kind of experiment: Anticancer activity against human HCT-116 cells assessed as inhibition of cell proliferation at 20 to 40 micromol/L incubated for 24 to 72 hrs by MTT assay. The format is functional, cell-based. The conditions noted are these: dose 20-40 µmol/L, time 24-72 hrs, TDE = time-dependent effect.
Data set [11] has as its system HCT-116. Kind of data set: Anticancer activity against human HCT-116 cells assessed as decrease in number of colonies at 25 micromol/L and measured after 48 hrs by crystal violet dye based colony formation assay. The format is functional, cell-based. Particulars: dose 25.0 µmol/L.
For data set [12], the system named is HCT-116. Kind of data set: Anticancer activity against human HCT-116 cells assessed as decrease in size of colonies at 25 micromol/L and measured after 48 hrs by crystal violet dye based colony formation assay. The format is functional, cell-based. Particulars: dose 25.0 µmol/L.
The test system of data set [13] is HCT-116. Kind of data set: Inhibition of cell migration in human HCT-116 cells at 20 micromol/L and measured after 24 hrs by crystal violet staining based transwell assay. The format is functional. The conditions noted are these: dose 20.0 µmol/L.
Data set [14] relates to HCT-116. Kind of data set: Inhibition of cell invasion in human HCT-116 cells at 20 micromol/L and measured after 24 hrs by crystal violet staining based transwell assay. It is filed as functional. Particulars: HCT-116, 24 h, dose 20 µmol/L.
Data set [15] relates to HCT-116. Kind of data set: Induction of apoptosis in human HCT-116 cells assessed as contraction of cell volume at 30 micromol/L incubated for 48 hrs by Giemsa staining based fluorescence microscopy. It is filed as functional. Particulars: dose 30.0 µmol/L.
The subject of data set [16] is HCT-116. As to the kind of experiment: Induction of cell cycle arrest in human HCT-116 cells assessed as accumulation G2/M phase at 25 micromol/L and measured after 48 hrs by propidium iodide staining based flow cytometry analysis (Rvb= 11%). It is filed as functional. The conditions noted are these: dose 25 µmol/L, at 25 µM.
The test system of data set [17] is HCT-116. Kind of data set: Induction of apoptosis in human HCT-116 cells assessed as necrotic cells at 30 micromol/L incubated for 48 hrs by annexin V-FITC and propidium iodide staining based flow cytometry analysis (reference value: 0.88%). The format is functional. Particulars: dose 30 µmol/L, at 30 µM.
In data set [18] the test system is HCT-116. Kind of data set: Induction of apoptosis in human HCT-116 cells assessed as late apoptotic cells at 30 micromol/L incubated for 48 hrs by annexin V-FITC and propidium iodide staining based flow cytometry analysis (reference value: 7.13%). The format is functional. The conditions noted are these: dose 30 µmol/L, at 30 µM.
Data set [19] deals with HCT-116. Kind of data set: Induction of apoptosis in human HCT-116 cells assessed as early apoptotic cells at 30 micromol/L incubated for 48 hrs by annexin V-FITC and propidium iodide staining based flow cytometry analysis (reference value: 2.69%). It is filed as functional. The conditions noted are these: dose 30 µmol/L, at 30 µM.
Data set [20] concerns HCT-116. As to the kind of experiment: Induction of apoptosis in human HCT-116 cells assessed as viable cells at 30 micromol/L incubated for 48 hrs by annexin V-FITC and propidium iodide staining based flow cytometry analysis (reference value: 89.29%). The format is functional. Particulars: HCT-116, 48 h, dose 30 µmol/L, read-out: Activity.
Data set [21] relates to HCT-116. As to the kind of experiment: Induction of apoptosis in human HCT-116 cells assessed as unclear cell rupture edges at 30 micromol/L incubated for 48 hrs by Giemsa staining based fluorescence microscopy. The format is functional. Particulars: dose 30.0 µmol/L.
Data set [22] relates to HCT-116. Kind of data set: Induction of apoptosis in human HCT-116 cells assessed as apoptotic body formation at 30 micromol/L incubated for 48 hrs by Giemsa staining based fluorescence microscopy. The format is functional, cell-based. Particulars: dose 30.0 µmol/L.
In data set [23] the test system is HCT-116. Kind of data set: Induction of apoptosis in human HCT-116 cells assessed as retraction of the nucleus at 30 micromol/L incubated for 48 hrs by Giemsa staining based fluorescence microscopy. The format is functional, cell-based. Particulars: dose 30.0 µmol/L.
Data set [24] deals with HCT-116. As to the kind of experiment: Induction of apoptosis in human HCT-116 cells assessed as retraction of the cytoplasm at 30 micromol/L incubated for 48 hrs by Giemsa staining based fluorescence microscopy. It is filed as functional, cell-based. Particulars: dose 30.0 µmol/L.
Data set [25] relates to HCT-116. Kind of data set: […] activity in human HCT-116 cells assessed as downregulation of Bcl-2 level at 30 micromol/L incubated for 48 hrs by Western blot analysis. Particulars: dose 30.0 µmol/L. The format is functional, cell-based.
For data set [26], the system named is HCT-116. As to the kind of experiment: […] activity in human HCT-116 cells assessed as upregulation of cleaved caspase-3 level at 30 micromol/L incubated for 48 hrs by Western blot analysis. The format is functional, cell-based. Particulars: dose 30.0 µmol/L.
For data set [27], the system named is HCT-116. Kind of data set: Anticancer activity in human HCT-116 cells assessed as downregulation of phosphorylated STAT3 level at 30 micromol/L incubated for 48 hrs by Western blot analysis. The format is functional, cell-based. The conditions noted are these: dose 30.0 µmol/L.
Data set [28] concerns HCT-116. As to the kind of experiment: Induction of mitochondrial membrane potential loss in human HCT-116 cells and measured after 48 hrs by TRME staining based flow cytometric analysis (reference value: 97.52%). The format is functional.
The subject of data set [29] is HCT-116. As to the kind of experiment: Induction of ROS generation in human HCT-116 cells assessed as increase in intracellular ROS level incubated for 48 hrs by DCFH-DA staining based flow cytometric analysis (Rvb=73.65%). It is filed as functional.

Turning to `C[C@H](CCC(=O)OCc1cc(O)cc(O)c1)[C@H]1CC[C@H]2[C@@H]3CC[C@@H]4C[C@H](O)CC[C@]4(C)[C@H]3CC[C@]12C`, the IC50 in the data set on HT-29 is 45.4 µM; in the data set with HCT-116 [1] it was 50.3 µM; with RKO, 42.9 µM; in the data set on LoVo, 59.8 µM; with SW480, 134 µM; in the data set with Huh-7, above 200 µM. The IC50 in the data set with SK-HEP1 is above 200 µM; in the data set on A549, 124 µM; in the data set on MGC-803 it was 82.3 µM; in data set [2], above 200 µM; with RAW264.7 [3] it was 12.1 µM. The inhibition at 10 µM in the data set with RAW264.7 [4] was 49%. The inhibition at 25 µM with RAW264.7 [5] was 82.1%. Besides, the Activity in the data set with RAW264.7 [6] stood at 50%.
Take `COC(=O)[C@H](CCSC)NC(=O)CC[C@@H](C)[C@H]1CC[C@H]2[C@@H]3[C@H](O)C[C@@H]4C[C@H](O)CC[C@]4(C)[C@H]3CC[C@]12C`: the IC50 was 27.3 µM in the data set with HT-29; 27.4 µM in the data set on HCT-116 [1]; 27.3 µM with RKO; 22.8 µM with LoVo; 23.6 µM with SW480; 68 µM with Huh-7. In addition, the concentration for half-maximal inhibition (IC50) with SK-HEP1 is 38.6 µM; with A549 it was 79.8 µM; with MGC-803 it was 31.5 µM; in data set [2], above 500 µM. Also, the inhibition at 25 µM with HCT-116 [7] was 30%. In the data set on HCT-116 [8], the inhibition at 30 µM came to 70%. Also, the results for the inhibition result in the data set on HCT-116 [9] and in the data set on HCT-116 [10] were “Dde” and “Tde”, respectively. Further, the outcome in the data set on HCT-116 [11], in the data set with HCT-116 [12], in the data set with HCT-116 [15], in the data set on HCT-116 [21], in the data set on HCT-116 [22] and in the data set on HCT-116 [23] was Active. In addition, the outcome in the data set with HCT-116 [24], in the data set with HCT-116 [25], in the data set with HCT-116 [26] and in the data set on HCT-116 [27] was Active. The inhibition entry in the data set with HCT-116 [13] is “Active”. Besides, at 20 µM the inhibition with HCT-116 [14] was 50%. Moreover, the Activity in the data set with HCT-116 [16] came out at 72.91%; with HCT-116 [17], 0.71%; in the data set on HCT-116 [18] it was 52.35%; in the data set on HCT-116 [19], 3.86%; in the data set with HCT-116 [28], 79.54%; with HCT-116 [29], 86.51%. Further, in the data set on HCT-116 [20], the viability at 30 µM was 43.1%.

Source of the values: ChEMBL document CHEMBL5104211, “Design and synthesis of bile acid derivatives and their activity against colon cancer” (RSC Med Chem, 2022).
